For the first assay, the system named is EMC-BAC-2. Briefly: relative viability (nuclei count vs DMSO), 5 days (fraction); higher = more cells survive. Particulars: first compound 0.253 µM. Put shortly: (§1)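 Relative viability divides the nuclei count in treated wells by that in vehicle wells. Lung cancer cell lines were seeded in 1536-well plates, dosed by pin tool the next day, and fixed and stained after 5 days in one step with final 0.05% Triton X-100, 1% formaldehyde and 1 ug/ml Hoechst. Dosing was a single drug or a fixed anchor-drug dose plus five library-drug doses (not always all listed) in √10 steps, and values are medians of duplicate plates imaged at 4×.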
On to `Nc1cccc2c1CN(C1CCC(=O)NC1=O)C2=O` (stereo not given) [Lenalidomide] + CC(=O)c1c(C)c2cnc(Nc3ccc(N4CCNCC4)cn3)nc2n(C2CCCC2)c1=O [Palbociclib] (partner 0.5 µM), for which the relative viability was determined as 0.503.

Staying with this assay, now noted: first compound 0.8 µM.
`Nc1cccc2c1CN(C1CCC(=O)NC1=O)C2=O` (stereo not given) [Lenalidomide] + CCNC(=O)c1noc(-c2cc(C(C)C)c(O)cc2O)c1-c1ccc(CN2CCOCC2)cc1 [Luminespib] (partner 0.01 µM) showed a relative viability of 1.1.

`Nc1cccc2c1CN(C1CCC(=O)NC1=O)C2=O` (stereo not given) [Lenalidomide] + Nc1ncn([C@H]2C[C@H](O)[C@@H](CO)O2)c(=O)n1 [Decitabine] (partner 2 µM) showed a relative viability of 0.929.

Compound `Nc1cccc2c1CN(C1CCC(=O)NC1=O)C2=O` (stereo not given) [Lenalidomide] + Cc1nc(Nc2ncc(C(=O)Nc3c(C)cccc3Cl)s2)cc(N2CCN(CCO)CC2)n1 [Dasatinib] (partner 0.075 µM) gave a relative viability of 0.28.

On to `Nc1cccc2c1CN(C1CCC(=O)NC1=O)C2=O` (stereo not given) [Lenalidomide] + N=C(N)NC(=N)NCCc1ccccc1 [Phenformin] (partner 250 µM), for which the relative viability was found to be 0.525.

For the compound `Nc1cccc2c1CN(C1CCC(=O)NC1=O)C2=O` (stereo not given) [Lenalidomide] + CC(=O)c1c(C)c2cnc(Nc3ccc(N4CCNCC4)cn3)nc2n(C2CCCC2)c1=O [Palbociclib] (partner 0.5 µM), the relative viability worked out at 0.473.

The assay is the same for the next values; noted with them: first compound 2.53 µM.
Consider `Nc1cccc2c1CN(C1CCC(=O)NC1=O)C2=O` (stereo not given) [Lenalidomide] + CCNC(=O)c1noc(-c2cc(C(C)C)c(O)cc2O)c1-c1ccc(CN2CCOCC2)cc1 [Luminespib] (partner 0.01 µM), for which the relative viability was 1.23.

As for `Nc1cccc2c1CN(C1CCC(=O)NC1=O)C2=O` (stereo not given) [Lenalidomide] + Nc1ncn([C@H]2C[C@H](O)[C@@H](CO)O2)c(=O)n1 [Decitabine] (partner 2 µM), the relative viability was 0.995.

`Nc1cccc2c1CN(C1CCC(=O)NC1=O)C2=O` (stereo not given) [Lenalidomide] + Cc1nc(Nc2ncc(C(=O)Nc3c(C)cccc3Cl)s2)cc(N2CCN(CCO)CC2)n1 [Dasatinib] (partner 0.075 µM) returned a relative viability of 0.33.

As to `Nc1cccc2c1CN(C1CCC(=O)NC1=O)C2=O` (stereo not given) [Lenalidomide] + N=C(N)NC(=N)NCCc1ccccc1 [Phenformin] (partner 250 µM), the relative viability came to 0.598.

`Nc1cccc2c1CN(C1CCC(=O)NC1=O)C2=O` (stereo not given) [Lenalidomide] + CC(=O)c1c(C)c2cnc(Nc3ccc(N4CCNCC4)cn3)nc2n(C2CCCC2)c1=O [Palbociclib] (partner 0.5 µM) had a relative viability of 0.52.

The assay is the same for the next values; noted with them: first compound 8 µM.
`Nc1cccc2c1CN(C1CCC(=O)NC1=O)C2=O` (stereo not given) [Lenalidomide] + CCNC(=O)c1noc(-c2cc(C(C)C)c(O)cc2O)c1-c1ccc(CN2CCOCC2)cc1 [Luminespib] (partner 0.01 µM): the relative viability worked out at 1.11.

As to `Nc1cccc2c1CN(C1CCC(=O)NC1=O)C2=O` (stereo not given) [Lenalidomide] + Nc1ncn([C@H]2C[C@H](O)[C@@H](CO)O2)c(=O)n1 [Decitabine] (partner 2 µM), the relative viability is 0.801.

In the case of `Nc1cccc2c1CN(C1CCC(=O)NC1=O)C2=O` (stereo not given) [Lenalidomide] + Cc1nc(Nc2ncc(C(=O)Nc3c(C)cccc3Cl)s2)cc(N2CCN(CCO)CC2)n1 [Dasatinib] (partner 0.075 µM), the relative viability amounted to 0.256.

The compound `Nc1cccc2c1CN(C1CCC(=O)NC1=O)C2=O` (stereo not given) [Lenalidomide] + N=C(N)NC(=N)NCCc1ccccc1 [Phenformin] (partner 250 µM) returned a relative viability of 0.459.

Compound `Nc1cccc2c1CN(C1CCC(=O)NC1=O)C2=O` (stereo not given) [Lenalidomide] + CC(=O)c1c(C)c2cnc(Nc3ccc(N4CCNCC4)cn3)nc2n(C2CCCC2)c1=O [Palbociclib] (partner 0.5 µM) gave a relative viability of 0.448.

Another assay deals with NCI-H1395. Described as above. The settings on record: first compound 0.253 µM. Put shortly:
as §1
With `Nc1cccc2c1CN(C1CCC(=O)NC1=O)C2=O` (stereo not given) [Lenalidomide] + CCNC(=O)c1noc(-c2cc(C(C)C)c(O)cc2O)c1-c1ccc(CN2CCOCC2)cc1 [Luminespib] (partner 0.01 µM), the relative viability came out at 0.796.

With `Nc1cccc2c1CN(C1CCC(=O)NC1=O)C2=O` (stereo not given) [Lenalidomide] + Nc1ncn([C@H]2C[C@H](O)[C@@H](CO)O2)c(=O)n1 [Decitabine] (partner 2 µM), the relative viability is 0.763.

Compound `Nc1cccc2c1CN(C1CCC(=O)NC1=O)C2=O` (stereo not given) [Lenalidomide] + Cc1nc(Nc2ncc(C(=O)Nc3c(C)cccc3Cl)s2)cc(N2CCN(CCO)CC2)n1 [Dasatinib] (partner 0.075 µM) returned a relative viability of 0.428.

As to `Nc1cccc2c1CN(C1CCC(=O)NC1=O)C2=O` (stereo not given) [Lenalidomide] + N=C(N)NC(=N)NCCc1ccccc1 [Phenformin] (partner 250 µM), the relative viability amounted to 0.436.

On to `Nc1cccc2c1CN(C1CCC(=O)NC1=O)C2=O` (stereo not given) [Lenalidomide] + CC(=O)c1c(C)c2cnc(Nc3ccc(N4CCNCC4)cn3)nc2n(C2CCCC2)c1=O [Palbociclib] (partner 0.5 µM), for which the relative viability amounted to 0.649.

The same assay, now with this note: first compound 0.8 µM.
In the case of `Nc1cccc2c1CN(C1CCC(=O)NC1=O)C2=O` (stereo not given) [Lenalidomide] + CCNC(=O)c1noc(-c2cc(C(C)C)c(O)cc2O)c1-c1ccc(CN2CCOCC2)cc1 [Luminespib] (partner 0.01 µM), the relative viability turned out to be 0.72.

On to `Nc1cccc2c1CN(C1CCC(=O)NC1=O)C2=O` (stereo not given) [Lenalidomide] + Cc1nc(Nc2ncc(C(=O)Nc3c(C)cccc3Cl)s2)cc(N2CCN(CCO)CC2)n1 [Dasatinib] (partner 0.075 µM), for which the relative viability is 0.383.

For the compound `Nc1cccc2c1CN(C1CCC(=O)NC1=O)C2=O` (stereo not given) [Lenalidomide] + N=C(N)NC(=N)NCCc1ccccc1 [Phenformin] (partner 250 µM), the relative viability was found to be 0.403.

Still in this assay, the particulars now being: first compound 2.53 µM.
Take `Nc1cccc2c1CN(C1CCC(=O)NC1=O)C2=O` (stereo not given) [Lenalidomide] + CCNC(=O)c1noc(-c2cc(C(C)C)c(O)cc2O)c1-c1ccc(CN2CCOCC2)cc1 [Luminespib] (partner 0.01 µM): the relative viability is 0.855.

With `Nc1cccc2c1CN(C1CCC(=O)NC1=O)C2=O` (stereo not given) [Lenalidomide] + Nc1ncn([C@H]2C[C@H](O)[C@@H](CO)O2)c(=O)n1 [Decitabine] (partner 2 µM), the relative viability is 0.743.

Turning to `Nc1cccc2c1CN(C1CCC(=O)NC1=O)C2=O` (stereo not given) [Lenalidomide] + Cc1nc(Nc2ncc(C(=O)Nc3c(C)cccc3Cl)s2)cc(N2CCN(CCO)CC2)n1 [Dasatinib] (partner 0.075 µM), the relative viability came out at 0.392.

Take `Nc1cccc2c1CN(C1CCC(=O)NC1=O)C2=O` (stereo not given) [Lenalidomide] + N=C(N)NC(=N)NCCc1ccccc1 [Phenformin] (partner 250 µM): the relative viability worked out at 0.508.

In the case of `Nc1cccc2c1CN(C1CCC(=O)NC1=O)C2=O` (stereo not given) [Lenalidomide] + CC(=O)c1c(C)c2cnc(Nc3ccc(N4CCNCC4)cn3)nc2n(C2CCCC2)c1=O [Palbociclib] (partner 0.5 µM), the relative viability turned out to be 0.701.

Still in this assay, the particulars now being: first compound 8 µM.
For `Nc1cccc2c1CN(C1CCC(=O)NC1=O)C2=O` (stereo not given) [Lenalidomide] + CCNC(=O)c1noc(-c2cc(C(C)C)c(O)cc2O)c1-c1ccc(CN2CCOCC2)cc1 [Luminespib] (partner 0.01 µM), the relative viability stood at 0.615.

For the origin of these results see the supplement of paper PMC10307832.
